Measurements: patent US8071575B2, “Methods and compounds for the targeted delivery of agents to bone for interaction therewith” (priority 2007, dated 2011)

What was measured:
ICR Swiss mice = test: Stimulation of periosteal bone formation in a mouse calvarial injection model; format: in vivo; details: present-tense example, no data or figure
Method: Stimulation of Periosteal Bone Formation in a Mouse Calvarial Injection Model. The anabolic (bone formation) of compounds of the presently-disclosed subject matter are evaluated in the mouse calvarial injection model. Briefly, 4-week-old ICR Swiss mice are injected subcutaneously over the surface of the calvariae with compounds of the presently-disclosed subject matter at concentrations of 0, 1, 3, and 10 mg/kg/day for 5 days (twice a day). Microtubule inhibitor TN-16 (5 mg/kg/day for 2 days, twice a day) are used as a positive control. Mice are sacrificed two weeks after the injections are completed. Dissected calvarial samples are fixed in 10% phosphate-buffered formalin for 2 days, decalcified in 10% EDTA for 2 weeks and then embedded in paraffin. Histological sections are cut and stained with H&E and orange G. New woven bone formation (new bone area) is quantified by histomorphometry using the OsteoMeasure system (OsteoMetrics Inc., Atlanta, Ga.).

OVX rats [1] = test: Femoral density via Archimedes' Principle (whole bone); format: in vivo, Sprague-Dawley female rats; details: OVX rats, three times per week for 6 weeks
Method: (§1) Animals. Six month old, bilaterally ovariectomized (OVX) or sham operated Sprague-Dawley female rats (Harlan Laboratories, Indianapolis, Ind.) were maintained at the University of Louisville Research Resources Center at 22° C. with a 12-h light/dark cycle and ad libitum access to tap water and rodent chow (Purina Laboratory Rodent Diet 5001). All animal procedures were approved by the Institutional Animal Care and Use Committee, which is certified by the American Association for Accreditation of Laboratory Animal Care.
(§2) In vivo experiments were conducted in order to investigate the efficacy of compounds of the presently-disclosed subject matter. In all of the experiments, OVX and sham operated rats were randomly divided into groups of 5-7 animals. In all of the studies experimental groups included: i) Sham-operated control (euthanized six weeks post surgery as a pretreatment control), ii) OVX control (euthanized six weeks post surgery as a pretreatment control), iii) Sham control receiving vehicle, iv) OVX control receiving vehicle, v) OVX receiving 17-ethinyl estradiol (equimolar concentration with a selected test compound), vi) OVX receiving alendronate (1.6 mg/kg), and vii) OVX receiving parathyroid hormone 1-34 (PTH) ([…]). 17-ethinyl estradiol (17 EE) is a free estrogenic agent known to be orally active, and can serve as an example of an anti-catabolic agent. Alendronate (Alen) is a bisphosphonate that is currently used to treat osteoporosis (e.g., Fosamax®, Merck & Co., Inc,), and can serve as an example of an anti-catabolic agent. Parathyroid hormone 1-34 (PTH) is an agent that can serve as an example of an anabolic agent. All compounds and vehicle (1% DMSO in corn oil) were administered three times per week orally by gavage except for PTH which was administered via a subcutaneous injection in a volume of 0.5 ml/kg body mass thrice per week. Compound administration was initiated 6 weeks following surgery and lasted for 6 weeks (18 doses total).
(§3) Compounds of the presently-disclosed subject matter were orally administered to OVX rats at various doses. As indicated above all BTE's were administered three times per week for 6 weeks.
(§4) Following 6 weeks of treatment, blood was obtained from each animal via cardiac puncture following an overnight fast and animals were subsequently euthanized via carbon dioxide asphyxiation. Blood was centrifuged immediately and the obtained serum samples were aliquoted and stored at −70° C. prior to analysis. Uteri were removed and fresh weights were obtained. Uterine masses were normalized to body mass at the end of the experiment. The left and right femora and left and right tibiae were subsequently collected from each animal, cleaned of soft tissue, and stored in saline at 4° C. prior to analysis.
Femoral Density via Archimedes' Principle. Right femora were submerged in distilled water and fully hydrated under a vacuum for 1 hr. Subsequently, the mass of each hydrated femur was obtained in air and when submerged in water. Densities were determined using Archimedes' Principle according to the following formula: density=[mass of hydrated femur/(mass of hydrated femur−mass of hydrated femur submerged in water)]×density of distilled water at a given temperature (See Keenan, et al. Comparison of bone density measurement techniques: DXA and Archimedes' principle. J Bone Miner Res 1997; 12:1903-7.). The obtained density measurements were associated with whole bone.

[2] = Hydroxyapatite (HA) Binding Assay; details: 10^−5 M analyte, 50 mM Tris-HCl pH 7.4, 1% DMSO; adjusted such that tetracycline = 100
Method: A Hydroxyapatite (HA) Binding Assay is used to determine whether compounds have an affinity for bone. Compounds of the presently-disclosed subject matter having a Bone Targeting Portion (RT) are studied using the HA Binding Assay. A 10^−3 M solution of each analyte was made in 100% dimethylsulfoxide (DMSO). A 100 fold dilution was then made to form a 10^−5 M solution in 50 mM Tris-HCl buffer, pH 7.4, 1% DMSO. Tetracycline was used as a reference analyte and approximately 50% was adsorbed to HA at the concentration of 10^−5 M. The HA slurry was 0.5 g/100 mL 50 mM Tris-HCl buffer, 1% DMSO.
For each analyte, two samples were prepared. For one sample, 1 mL of 10^−5 M analyte and 100 μL 50 mM Tris-HCl buffer, 1% DMSO was pipetted into a microcentrifuge tube. For the second sample, 1 mL of 10^−5 M analyte and 100 μL of the HA slurry was pipetted into a microcentrifuge tube. The samples were mixed gently by inversion for 4 minutes and then centrifuged at 12,000 g for 3 minutes to sediment the HA contained in those samples. The supernatant was transferred to another microcentrifuge tube.
An electronic spectral scan (ultraviolet-visible) from 220-520 nm was obtained for each analyte using a Varian Cary 300 Bio Scan. The blank was 50 mM Tris-HCl buffer, 1% DMSO. The wavelength of maximum absorbance (λmax) was determined, and the extinction coefficient (ε) was calculated using the Beer-Lambert Law.
The absorbance of the samples incubated with HA was measured at λmax, and the molar concentration of the analyte was then determined using the Beer-Lambert Law and the previously calculated extinction coefficient. The fraction adsorbed to HA for each sample was subsequently calculated.

OVX rats [3] = test: Volume fraction, ex vivo micro-computed tomography of tibia; format: in vivo, Sprague-Dawley female rats; details: present-tense example, no data or figure
Method: as §1, §2, §3, §4
Volume Fraction—Ex vivo micro-computed tomography (μCT). Volume fraction is a representative value for the amount of bone that occupies a given volume or space. High resolution image data were collected using a customized micro-CT system (ACTIS 150/225 system, BIR Inc., Lincolnshire, Ill.). The metaphysis of each right tibia was scanned over a three millimeter range and three-dimensional images were reconstructed. Data were subsequently processed to reveal the volume fraction (BV/TV) occupied by trabecular (cancellous) bone tissue, cortical bone tissue, and whole bone tissue. The resulting data provides information regarding the density of whole bone, cortical bone, and trabecular bone.

OVX rats [4] = test: Bone mechanical competence indentation test; format: in vivo, Sprague-Dawley female rats; details: present-tense example, no data or figure
Method: as §1, §2, §3, §4
Bone Mechanical Competence Indentation Test. After sacrifice, the left tibiae were trimmed to expose the cancellous bone of the proximal tibial metaphysis and an indentation test was performed by advancing a flat-tipped cylindrical post (1.5 mm diameter) axially into the cut surface to measure the compressive strength of the cancellous bone structure.

Row | Structure (SMILES) | new bone area (calvarial injection model) (ICR Swiss mice) | whole bone density (right femora) (OVX rats [1]; oral 3000 μg/kg) | Binding Index (binding to hydroxyapatite) [2] | volume fraction (BV/TV) of trabecular, cortical and whole bone tissue (OVX rats [3]) | bone strength (indentation test) (OVX rats [4]) | whole bone density (right femora) (OVX rats [1]; oral 10, 100, or 1000 μg/kg)
1 | COc1ccc(NC(=O)CCC(=O)OC2CCC3C4CCC5=CC(=O)CCC5(C)C4CCC23C)c(O)c1C(N)=O (stereo not shown) [Formula 33] | increase new bone area | higher than that of the OVX animals | 140 | increase bone density | increase bone strength | –
2 | COc1ccc(NC(=O)COCCOCCNC(=O)CCOC2CCC3C4CCc5cc(O)ccc5C4CCC23C)c(O)c1C(N)=O (stereo not shown) [Formula 123] | affect new bone area | – | 160 | increase bone density | increase bone strength | in the same ranges as those animals receiving 17-ethinyl estradiol (17 EE), Alendronate (Alen), or Parathyroid hormone 1-34 (PTH)
